# From patent publication US12351821B2, “Method to prepare sperm” (University of Massachusetts, priority 2016, dated 2025)
# Assays:
# [1] = test system: PKA; test: Western blot with anti-phosphoPKA substrate antibodies in sperm; type: cell-based, mouse
# Procedure: Cauda epididymal mouse sperm were placed in 1 ml Hepes-TYH media as stated in figure legend for each experiment. After 10 min incubation at 37° C., epididymides were removed, and the suspension adjusted with non-cap medium to a final concentration of 1-2×10^7 cells/ml. After dilution 1:4 (total 400 μl), sperm were incubated at 37° C. for 1 hour in conditions that support or not capacitation. For capacitation, media was supplemented with 15 mM NaHCO3 and 4 mg/ml BSA. For A23187 treatment, 500 uL of the sperm suspension were taken from the initial swim out and supplemented with 20 μM A23187 for 10 minutes. Then, A23187 was washed off with 2 rounds of centrifugations 1-) 2000 RPMS and the 2-) 1500 RPMS for 5 min each. Sperm were re-suspended in free A23187 media. To evaluate the behavior of A23187 when PKA is inactivated, H89 was used at a concentration of 50 uM for all incubation periods including those used for washing A23187. Sperm proteins were then extracted for western blotting.
# Sperm were centrifuged, and washed in 1 ml of phosphate buffer solution (PBS), re-suspended in Laemmli sample buffer (63), and boiled for 4 min. Before Loading, 5% β-mercaptoethanol was added to the protein extracts and boiled for 3 min. Protein extracts equivalent to 1×10^6 sperm were loaded per line and subjected to SDS-PAGE an electro-transfer to PVDF membranes (Bio-Rad) at 250 mA for 60 min on ice. […]
# [2] = test system: mouse sperm (fertilizing capacity, metaphase II-arrested eggs); test: In vitro fertilization assay with ionophore pre-treated sperm; type: cell-based; settings: for fertilizing capacity: A23187 treatment
# Procedure: (§1) Sperm from CD-1, C57BL6 (K.O control), CatSper KO 19, SLO3 KO (56), Soluble Adenylyl Cyclase KO (20), and PMC4 KO (35) cauda epididymides were allowed to swim out in 1 mL of standard TYH for 10 minutes. Each swim out tube was split in two halves (500 μl each) and one half was incubated with 20 uM A23187 for 10 minutes. Then, the A23187 was washed by centrifugation as described above (2000 and 1500 RPMS×5 min), the remaining sperm were re-suspended in free A23187 TYH standard medium and capacitated for an addition 1 hour and 20 minutes before adding the sperm to the fertilization drop or for CASA analysis.
# Metaphase II-arrested eggs were collected from 6-8 week-old super ovulated CD-1 female mice (Charles River Laboratories). Females were each injected with 5-10 IU equine chorionic gonadotropin and 5-10 IU human chorionic gonadotropin 48 h apart. The cumulus-oocyte complexes (COC's) were placed into a well with 500 μl of media (TYH standard medium) previously equilibrated in an incubator with 5% CO2 at 37° C. Fertilization wells containing 20-30 eggs were inseminated with sperm (final concentration of 2.5×10^6 cells/ml) that had been incubated for 1 h and 20 min (in a medium supporting capacitation with or without calcium ionophore treatment A23187). After 4 h of insemination, eggs were washed and put in a fresh media. The eggs were evaluated 24 h post-insemination. To assess fertilization the three following criteria were considered: 1) the formation of the male and female pronuclei, 2) the emission of the second polar body, and 3) two cells stages.
# [3] = test system: mouse sperm; test: Sperm motility and hyperactivation by CASA after transient A23187 pre-treatment; type: cell-based
# Procedure: as §1
# Sperm suspensions (25 μl) were loaded into one pre-warmed chamber slide (depth, 100 μm) (Leja slide, Spectrum Technologies) and placed on a microscope stage at 37° C. Sperm movements were examined using the CEROS computer-assisted semen analysis (CASA) system (Hamilton Thorne Research, Beverly, MA). The default settings include the following: frames acquired: 90; frame rate: 60 Hz; minimum cell size: 4 pixels; static head size: 0.13-2.43; static head intensity: 0.10-1.52; static head elongation: 5-100. Sperm with hyper activated motility, defined as motility with high amplitude thrashing patterns and short distance of travel, were sorted using the criteria established by (64). The data was analyzed using the CASA nova software (64). At least 20 microscopy fields corresponding to a minimum of 200 sperm were analyzed in each experiment.
# [4] = test system: pseudo-pregnant CD-1 recipient females; test: Non-surgical embryo transfer to pseudo-pregnant females, pups born; type: in vivo, mouse
# Procedure: (§2) Fertilized 2 cell embryos were cultured in KSOM media to blastocyst stage between 3.5 days wt and K. O between 3.8 to 4.1 days. Then they were transferred to 2.5 days post coitum (dpc) pseudo-pregnant CD-1 recipient females using the non-surgical uterine embryo transfer device (65). Pseudo-pregnant CD-1 recipient females were obtained by mating with vasectomized males one day after in vitro fertilization. Only females with a clear plug were chosen as embryo recipients; late morula and early stage blastocysts were chosen to be transferred. Routine genotyping was performed with total DNA from tail biopsy samples from weaning age pups as templates for PCR using genotyping primers for Catsper gene forward [5′-[…]-3′, Seq ID NO: 1] and reverse [S′-[…]-3′; Seq ID NO: 2] and for the reporter gene Lacz forward [5′[…]-3′; Seq ID NO: 3] and reverse [5′-[…]-3′: Seq ID NO: 4] (19).
# [5] = test system: 2 cell embryos from eggs fertilized by treated sperm; test: Embryo culture of 2 cell embryos in KSOM to blastocyst stage; type: cell-based, mouse; settings: for percentage of blastocyst in relation to the number of two-cell embryos: CatSper KO sperm, 3.5 days in KSOM
# Procedure: as §2
# [6] = H89-treated C57BL6 sperm incubated 10 min in A23187
compound,measurement,setting,value
"O=S(=O)(NCCNCC=Cc1ccc(Br)cc1)c1cccc2cnccc12 [H89, N-[2-[[3-(4-bromophenyl)-2-propen-1-yl]amino]ethyl]5-isoquinolinesulfonamide]",PKA substrate phosphorylation,"[1]; C57BL6 sperm, H89 50 uM",do not show the prototypical increase in PKA substrate phosphorylation
same,ability to fertilize in vitro in the presence of PKA inhibitor,"[2]; C57BL6 sperm, H89 50 uM",unable to fertilize in vitro
CNc1ccc2oc(C[C@H]3O[C@@]4(CC[C@H]3C)O[C@H]([C@H](C)C(=O)c3ccc[nH]3)[C@H](C)C[C@H]4C)nc2c1C(=O)O [A23187],percentage of hyperactive sperm,"[3]; C57BL6 sperm, short pulse of A23187 (20 uM, 10 min), compared with CD1 sperm",increased the percentage of hyperactive C57BL6 sperm to similar levels as those obtained using CD1 sperm
same,hyperactivated motility,"[3]; CatSper1 KO sperm, 20 μM A23187 10 min then washed",a significant number of CatSper KO sperm exhibited hyperactivated motility
same,sperm motility,"[3]; PMCA4 KO sperm, A23187 addition and removal",rendered all the sperm motionless and their motility was not recovered after ionophore removal
same,hyperactivated motility,"[3]; PMCA4 KO sperm, A23187 treatment",neither their hyperactivated motility nor their fertilizing capacity was rescued
same,hyperactivation,"[3]; sAC KO and SLO3 KO sperm, A23187 for 10 min",underwent hyperactivation
same,sperm motility,"[3]; sAC KO sperm, A23187 for 10 min",a significant fraction of sAC KO sperm became motile
same,PKA activity in H89-treated sperm after A23187,[1]; [6],PKA remains inactive
same,sperm fertilization rate,"[2]; C57BL6 sperm, A23187 pre-treatment",significant increase
same,infertile phenotype (two-cell embryos developed),"[2]; CatSper1 KO sperm, A23187 transient treatment alone",rescued the infertile phenotype
same,fertilization of metaphase II-arrested eggs in vitro,"[2]; CatSper KO sperm, A23187-treated",competent to fertilize
same,fertilization rate,"[2]; CatSper KO sperm, starved plus rescue treatment followed by A23187 transient treatment",~90%
same,sperm fertilization rate,"[2]; FerTDR/DR sperm, A23187 transient incubation",improved
same,fertilizing capacity of H89-treated sperm,[2]; [6],sufficient to induce fertilizing capacity
same,fertilizing capacity,[2]; PMCA4 KO sperm,neither their hyperactivated motility nor their fertilizing capacity was rescued
same,fertilizing capacity,[2]; sAC KO and SLO3 KO sperm,induced fertilizing capacity in sperm from both KO models
same,outcome of blastocysts non-surgically transferred to pseudo pregnant females,[4]; C57BL6 sperm after A23187 treatment,became live pups
same,heterozygous pups born,"[4]; CatSper KO sperm, A23187 alone, 15 blastocysts transferred",three
same,CatSper (+/-) mouse pups born,"[4]; blastocysts from A23187-treated CatSper KO sperm, two different females",five
same,percentage of blastocyst in relation to the number of two-cell embryos,[5]; A23187 transient treatment alone,20%
same,percentage of blastocyst in relation to the number of two-cell embryos,[5]; combined starved plus rescue with A23187 transient treatment,~90%
same,fertilized eggs that continued to the blastocyst stage,"[5]; eggs fertilized by C57BL6 sperm after A23187 treatment, control about 50%",over 80%
